The test concerns 485176-168-R4-J1-PDC spheroids with HUVEC/MSC, viability. The test is described as follows: Anticancer human tumor 485176-168-R4-J1-PDC patient-derived pancreatic adenocarcinoma cell line growth inhibition [GQUAD]. To be noted: for viability, T/C: stronger effect = lower value. The text has this:
DNA G-quadruplex Stabilizer Agents in Combinations in Complex Spheroids
A high-throughput screen of multi-cell type tumor spheroids was designed to identify active combinations of DNA G-quadruplex stabilizer agents and targeted small molecules. Complex spheroids include a stromal component modeled by human endothelial cells (HUVEC) and fibroblasts modeled by human mesenchymal stem cells (MSCs). The concentration ranges selected for each drug and investigational agent were based upon clinically achievable concentrations if the clinical Cmax of the agent was known.
Compounds. The drugs and investigational agents: pidnarulex (CX-5461; NSC782164), APTO-253 (NSC789042), BRACO-19 (NSC847499), peposertib (NSC802822), ceralasertib (NSC780249), elimusertib (NSC800525), camonsertib (NSC841442), AZD-1390 (NSC803789), olaparib (NSC753686), talazoparib (NSC767125), ART-558 (NSC835418), sotorasib (NSC818433), MRTX-1133 (NSC836407), SN-38 (NSC673596), topotecan (NSC609699), etoposide (NSC141540), doxorubicin (NSC123127), gemcitabine (NSC613327), 5-fluorouracil (NSC19893), paclitaxel (NSC125973), vemurafenib (NSC761431), panobinostat (NSC761190), R-306465 (JNJ-16241199; NSC773264), adavosertib (NSC754352), TP-3654 (NSC805149), carboplatin (NSC241240), KSQ-4279 (NSC840948), and staurosporine (NSC755774) were obtained from the National Cancer Institute (NCI) Developmental Therapeutics Program Chemical Repository (34). The FDA-approved anticancer drug set is available from the NCI Developmental Therapeutics Program. […] The stock solutions were prepared in dimethyl sulfoxide (DMSO, Sigma-Aldrich, St. Louis, MO, cat. D2650) at 800-fold the tested concentration and stored at -70 degrees C prior to their use. All drugs and investigational agents were tested over a range starting from a high concentration at or near the clinical Cmax and decreasing in half-log increments. If the clinical Cmax for an agent had not been determined, the highest concentration tested was 10 microM.
2.3 Cell Culture. All cells were maintained in an incubator at 37 degrees C and 5% CO2 with 95% humidity. The PDC lines were cultured according to standard operating procedures established by the NCI PDMR. All PDCs were thawed and cultured in Matrigel-coated flasks prepared with a working solution of 1X Ham's F-12 nutrient mix, without supplementation (Invitrogen, cat. 11765054), 100 U/mL penicillin-streptomycin (Invitrogen, cat. 15140122), and 2.5% Matrigel (Corning Inc., cat. 354248) for the first three passages. The 857933-349-R-J2-PDC line was cultured in 6C/Colon 1B media, which includes advanced DMEM/F-12 (Thermo Fisher Scientific, cat. 12634028), 10 mM HEPES (Thermo Fisher Scientific, cat. 15630080), 1X GlutaMAX supplement (Thermo Fisher Scientific, cat. 35050061), 0.1 mg/mL primocin (InvivoGen, cat. ant-pm-2), 10% defined fetal bovine serum, heat inactivated (HyClone Laboratories Inc., cat. SH30070.03HI), 50% L-WRN conditioned media (ATCC, cat. CRL-3276), 1.25 mM N-Acetyl-L-cysteine (Sigma-Aldrich, cat. A9165), 10 mM nicotinamide (Sigma-Aldrich, cat. N0636), 1X B-27 supplement (Thermo Fisher Scientific, cat. 17504044), 1X N-2 supplement (Thermo Fisher Scientific, cat. 17502048), 10 microM Y-27632 dihydrochloride (Tocris Bioscience, cat. 1254), and 50 ng/mL human EGF recombinant protein (Thermo Fisher Scientific, cat. PHG0311). The 485176-168-R4-J1-PDC line was cultured in Panc media, which includes all 6C/Colon 1B media components plus 100 ng/mL human FGF-10 (Thermo Fisher Scientific, cat. 100-26), 500 nM SB-431542 (Selleckchem, cat. S1067), and gastrin (Tocris, cat. 3006).
[…]

Where [1] appears, read: curve of first compound, second compound 0.0316 µM.
Setting [2] is: curve of first compound, second compound 0.1 µM.
[3] abbreviates: curve of first compound, second compound 0.316 µM.
The mark [4] stands for this setting: curve of first compound, second compound 1 µM.
Setting [5] is: curve of first compound, second compound 3.16 µM.
The mark [6] stands for this setting: curve of first compound, second compound 10 µM.
[7] abbreviates: second compound 0.0316 µM, first compound 0.0316 µM.
[8] abbreviates: second compound 0.0316 µM, first compound 0.316 µM.
[9] abbreviates: second compound 0.1 µM, first compound 0.0316 µM.
Where [10] appears, read: second compound 0.1 µM, first compound 0.316 µM.
Where [11] appears, read: second compound 0.316 µM, first compound 0.0316 µM.
Setting [12] is: second compound 0.316 µM, first compound 0.316 µM.
The mark [13] stands for this setting: second compound 1 µM, first compound 0.0316 µM.
[14] abbreviates: second compound 1 µM, first compound 0.316 µM.
Where [15] appears, read: second compound 3.16 µM, first compound 0.0316 µM.
[16] abbreviates: second compound 3.16 µM, first compound 0.316 µM.
Setting [17] is: second compound 10 µM, first compound 0.0316 µM.
Setting [18] is: second compound 10 µM, first compound 0.316 µM.

Values joined by “and” are separate entries in the source; they are usually repeats but may differ in a detail not shown here. Equal values may be shown once.
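Also: spheroids exposed to compounds for seven days before readout.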
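For viability, T/C in this document: percent viability relative to DMSO vehicle control wells as 100%.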

On to `O=C(NO)c1cnc(N2CCN(S(=O)(=O)c3ccc4ccccc4c3)CC2)nc1` + Cc1cnc(CNC(=O)c2c(=O)c3ccc(N4CCCN(C)CC4)nc3n3c2sc2ccccc23)cn1, for which the IC50 (commonly the concentration that gives 50% inhibition) was 322 nM under setting [1]; 185 nM under setting [2]; 132 nM under setting [3]; under 31.6 nM under setting [4]; under 31.6 nM under setting [5]; under 31.6 nM under setting [6]. Besides, the viability, T/C (usually the ratio of treated to control) under setting [7] was 81%; the viability, T/C (second compound 0.0316 µM, first compound 0.1 µM) was 62.6%; the viability, T/C under setting [8] was 53.3%; the viability, T/C (second compound 0.0316 µM, first compound 1 µM) was 8.83%; the viability, T/C (second compound 0.0316 µM, first compound 3.16 µM) was 0.53%; the viability, T/C (second compound 0.0316 µM, first compound 10 µM) is 0.27%. The viability, T/C is, setting by setting: under setting [9], 66.3%; (second compound 0.1 µM, first compound 0.1 µM) 57.2%; under setting [10], 42%; (second compound 0.1 µM, first compound 1 µM) 8.37%; (second compound 0.1 µM, first compound 3.16 µM) 0.28%; (second compound 0.1 µM, first compound 10 µM) 1.03%. Further, the viability, T/C was 59.1% under setting [11]; 51.5% (second compound 0.316 µM, first compound 0.1 µM); 35.7% under setting [12]; 2.63% (second compound 0.316 µM, first compound 1 µM); 0.22% (second compound 0.316 µM, first compound 3.16 µM); 0.44% (second compound 0.316 µM, first compound 10 µM). Further, the viability, T/C under setting [13] was 39.8%; the viability, T/C (second compound 1 µM, first compound 0.1 µM) is 44.7%; the viability, T/C under setting [14] was 23.2%; the viability, T/C (second compound 1 µM, first compound 1 µM) is 0.9%; the viability, T/C (second compound 1 µM, first compound 3.16 µM) is 1.33%; the viability, T/C (second compound 1 µM, first compound 10 µM) was 0.81%. Further, the viability, T/C was 45.5% under setting [15]; 41.9% (second compound 3.16 µM, first compound 0.1 µM); 18.6% under setting [16]; 0.3% (second compound 3.16 µM, first compound 1 µM); 0.21% (second compound 3.16 µM, first compound 3.16 µM); 0.18% (second compound 3.16 µM, first compound 10 µM). Moreover, the viability, T/C reads like this: under setting [17], 36.3%; (second compound 10 µM, first compound 0.1 µM) 33.3%; under setting [18], 14.1%; (second compound 10 µM, first compound 1 µM) 0.24%; (second compound 10 µM, first compound 3.16 µM) 1.65%; (second compound 10 µM, first compound 10 µM) 0.46%.
Turning to `O=C(NO)c1cnc(N2CCN(S(=O)(=O)c3ccc4ccccc4c3)CC2)nc1`, the viability, T/C was 83.4% and 107% and 97.9% (compound 0.0316 µM); 99.5% and 73.2% and 76.1% (compound 0.1 µM); 67.6% and 78.2% and 61.2% (compound 0.316 µM); 7.2% and 12.1% and 11% (compound 1 µM); 0.3% and 0.31% and 0.2% (compound 3.16 µM); 0.3% and 0.31% and 0.29% (compound 10 µM). Besides, the IC50 (curve of compound) is 443 nM and 512 nM and 378 nM.
As for `CC(C)n1c(=O)n(C)c2cnc3cc(F)c(-c4ccc(OCCCN5CCCCC5)nc4)cc3c21`, the viability, T/C is, setting by setting: (compound 0.0316 µM) 91.6% and 91.4% and 87.6%; (compound 0.1 µM) 84.9% and 80% and 85%; (compound 0.316 µM) 92.1% and 95.7% and 88.2%; (compound 1 µM) 91.2% and 77.1% and 86.4%; (compound 3.16 µM) 82.5% and 93.8% and 83.5%; (compound 10 µM) 78.8% and 75.8% and 72.5%. Also, the IC50 (curve of compound) is over 10000 nM.
Turning to `Cc1[nH]c2ccccc2c1CCNCc1ccc(/C=C/C(=O)NO)cc1`, the viability, T/C is 113% and 108% and 97.3% (compound 0.000999 µM); 115% and 82.3% and 88% (compound 0.00316 µM); 94.8% and 93.9% and 87% (compound 0.00999 µM); 81.7% and 86% and 77.5% (compound 0.0316 µM); 89.2% and 50.2% and 66% (compound 0.0999 µM); 14.2% and 10.4% and 16.8% (compound 0.316 µM). The concentration for half-maximal inhibition (IC50) (curve of compound) was 168 nM and 102 nM and 138 nM.
In the case of `Cn1ncnc1[C@H]1c2n[nH]c(=O)c3cc(F)cc(c23)N[C@@H]1c1ccc(F)cc1` + CN(C)c1ccc(Nc2c3ccc(NC(=O)CCN4CCCC4)cc3nc3cc(NC(=O)CCN4CCCC4)ccc23)cc1, the half-inhibitory concentration (IC50) under setting [1] is over 316 nM; the IC50 under setting [2] is over 316 nM; the half-maximal inhibitory concentration (IC50) under setting [3] is over 316 nM; the half-maximal inhibitory concentration (IC50) under setting [4] is over 316 nM; the concentration for half-maximal inhibition (IC50) under setting [5] was over 316 nM; the IC50 under setting [6] is over 316 nM. Further, the viability, T/C by setting is: (second compound 0.0316 µM, first compound 0.000999 µM) 92.1%; (second compound 0.0316 µM, first compound 0.00316 µM) 91.2%; (second compound 0.0316 µM, first compound 0.00999 µM) 101%; under setting [7], 98%; (second compound 0.0316 µM, first compound 0.0999 µM) 98.9%; under setting [8], 92%. For the same compound, the viability, T/C reads like this: (second compound 0.1 µM, first compound 0.000999 µM) 102%; (second compound 0.1 µM, first compound 0.00316 µM) 124%; (second compound 0.1 µM, first compound 0.00999 µM) 107%; under setting [9], 93.3%; (second compound 0.1 µM, first compound 0.0999 µM) 110%; under setting [10], 90.8%. Moreover, the viability, T/C was 101% (second compound 0.316 µM, first compound 0.000999 µM); 97.5% (second compound 0.316 µM, first compound 0.00316 µM); 95.3% (second compound 0.316 µM, first compound 0.00999 µM); 104% under setting [11]; 106% (second compound 0.316 µM, first compound 0.0999 µM); 96.5% under setting [12]. For the same compound, the viability, T/C is, setting by setting: (second compound 1 µM, first compound 0.000999 µM) 108%; (second compound 1 µM, first compound 0.00316 µM) 91.7%; (second compound 1 µM, first compound 0.00999 µM) 114%; under setting [13], 104%; (second compound 1 µM, first compound 0.0999 µM) 113%; under setting [14], 93.2%. Besides, the viability, T/C is 107% (second compound 3.16 µM, first compound 0.000999 µM); 80.9% (second compound 3.16 µM, first compound 0.00316 µM); 98.6% (second compound 3.16 µM, first compound 0.00999 µM); 95.7% under setting [15]; 89.3% (second compound 3.16 µM, first compound 0.0999 µM); 86.8% under setting [16]. Besides, the viability, T/C is 90.1% (second compound 10 µM, first compound 0.000999 µM); 81.4% (second compound 10 µM, first compound 0.00316 µM); 79.6% (second compound 10 µM, first compound 0.00999 µM); 97.7% under setting [17]; 99.5% (second compound 10 µM, first compound 0.0999 µM); 78.8% under setting [18].

These data come from PubChem BioAssay AID2060509 (Molecular Pharmacology Branch, DTP, NCI, 2025).
